Assay results from US20200046625A1, “COMPOUNDS USEFUL FOR THE TREATMENT AND/OR CARE OF THE SKIN, HAIR, NAILS AND/OR MUCOUS MEMBRANES” (LUBRIZOL ADVANCED MATERIALS, INC., priority 2016, published 2020).
The star is where a group is joined. Palmitoyl = CCCCCCCCCCCCCCCC(=O)*; Myristoyl = CCCCCCCCCCCCCC(=O)*

Tests used:
[1] = system: primary human subcutaneous pre-adipocyte cells; test: Reduction of lipid accumulation, AdipoRed fluorescent assay; type: cell-based; details: 8 days of treatment, PGM2 = 0%, PDM2 basal control = 100%
Protocol: The reduction of the percentage of lipid accumulation in human pre-adipocyte cells in a complete differentiation medium (basal control) is studied by treatment of the cells with the peptides of the invention. Quantification of lipid accumulation is evaluated with AdipoRed™ Assay Reagent (Lonza). Human pre-adipocyte cells (Lonza) are seeded in quadruplicate (10.000 cells/well) on a 96-well plate and they are incubated on a complete growth medium (PGM2, Lonza) for 24 hours at […] in a water-saturated atmosphere composed of 95% air and 5% CO2. The differentiation of pre-adipocytes into adipocytes is induced by changing the complete growth medium (PGM2, Lonza) for the complete differentiation medium (PDM2, Lonza). The cells are treated with the peptides of the invention at different concentrations prepared in complete differentiation medium. Caffeine (Sigma) at 0.2 mg/ml in PDM2 medium is used as a negative control of the lipid accumulation in the cells. Caffeine is the most widely used anti-cellulite cosmetic agent. […] Manufacturer protocol is followed for the use of AdipoRed™ Assay Reagent (Lonza). In brief, the cells are washed and the reagent AdipoRed™ is added diluted (5/200). After being incubated for 15 minutes in darkness and at room temperature, the Relative Fluorescence Units (RFUs) are measured using a fluorescence plate reader (CLARIOstar™, BMG LABTECH), with excitation filter at 485 nm and emission filter at 572 nm. […] The results are calculated as the mean of all the independent experiments carried out in each case for each peptide and concentration assayed.

[2] = system: Nocturnin (CCRN4L) in primary human subcutaneous pre-adipocyte cells; test: Relative level of nocturnin by ELISA, normalized with BCA total protein; type: cell-based; details: for Nocturnin level with respect to basal condition (%): 6 days of treatment, mean of 3 independent experiments
Protocol: The decrease in the relative level of nocturnin protein in human pre-adipocytes, cells that form adipose tissue, in a complete differentiation medium (basal condition) is studied when treating the peptides of the invention.
Human pre-adipocytes are seeded (10,000 cells/well, 4 wells per condition) on a 96-well plate and incubated on a complete growth medium (PGM2, LONZA) for 24 hours at 37° C. at an atmosphere with a CO2 level of 5%.
After incubation, the cells are treated with the peptides at 0.1, 0.5 and 1 mg/ml and its respective vehicles prepared in a complete differentiation medium (PDM2, LONZA). After 6 days of treatment at an atmosphere with 37° C. and a 5% CO2 level, the nocturnin level is measured using an ELISA test, and the total protein concentration is measured using a BCA (Bicinchoninic Acid) assay. For each concentration, the ELISA results are normalized with the BCA results. […] The values represent the mean of 3 independent experiments.
The manufacturer protocol of the ELISA kit for Carbon Catabolite Repression 4 Like Protein (CCRN4L) (Uscn Life Science Inc) is followed. In brief, the cells are lysed and the cell extracts are incubated on a 96-well plate coated with an anti-body specific to CCRN4L. Afterwards, the wells are coated with an antibody specific to CCRN4L conjugated with Biotin. Next, the Avidin conjugated with the enzyme Horseradish Peroxidase (HRP) is added to the plate. Finally, 3,3′,5,5′-Tetramethylbenzidine substrate is added to the plate and a change in color is observed proportionally to the quantity of nocturnin in each concentration. Lastly, a sulfuric acid solution is added to stop the enzyme-substrate reaction and quantify the color change with an absorbance reader (CLARIOstar™, BMG LABTECH) at 450 and 570 nm.
The manufacturer protocol of the BCA Protein assay kit (Pierce) is followed. The total protein concentration of the lysed cells is measured via a colorimetric reaction using a protein standard. In brief, the standard and the samples are distributed onto 96-well plates. The plate is then incubated with the reagent of the kit and finally the change in color is measured with the absorbance reader (CLARIOstar, BMG LABTECH) at 570 nm.

| Compound | % Lipid Accumulation ([1]; 1 mg/ml) | other results |
| --- | --- | --- |
| H-Tyr-Ile-Phe-NHC6H13 | 30.72% | – |
| H-Tyr-Ile-Tyr-NHC6H13 | 52.82% | – |
| Palmitoyl-Tyr-Leu-Tyr-NH2 | 25.42% | – |
| H-Tyr-Ile-Phe-NH2 | 47.45% | – |
| H-Phe-Trp-Tyr-Val-Tyr-NH2 (H-FWYVY-NH2) | – | % Lipid Accumulation ([1]; 0.005 mg/ml): 55.99% |
| H-Tyr-Ile-Phe-NHC16H33 | 40.61% | – |
| H-Phe-Tyr-Val-Tyr-Phe-NH2 (H-FYVYF-NH2) | 64.31% | – |
| Ac-Tyr-Val-Tyr-NH2 | 20.81% | – |
| H-Tyr-Val-Tyr-NHC6H13 | 30.79% | – |
| H-Tyr-Ile-Tyr-NHC16H33 | 23.74% | – |
| Palmitoyl-Tyr-Val-Tyr-NH2 | – | % Lipid Accumulation ([1]; 0.1 mg/ml): 86.17% |
| H-Tyr-Val-Tyr-OH | 22.66% | % Lipid Accumulation ([1]; 0.1 mg/ml): 35.14%; % Lipid Accumulation ([1]; 0.5 mg/ml): 33.55%; Nocturnin level with respect to basal condition (%) ([2]; 0.1 mg/mL): 67%; Nocturnin level with respect to basal condition (%) ([2]; 0.5 mg/mL): 87%; Nocturnin level with respect to basal condition (%) ([2]; 1 mg/mL): 83% |
| H-Tyr-Val-Tyr-Trp-NH2 (H-YVYW-NH2) | 90.32% | – |
| H-Tyr-Leu-Trp-NH2 | 62.42% | – |
| Cn1c(=O)c2c(ncn2C)n(C)c1=O [Caffeine, reference compound] | – | % Lipid Accumulation ([1]; 0.2 mg/ml in PDM2): 76.07% |
| H-Tyr-Val-Tyr-Phe-Trp-NH2 (H-YVYFW-NH2) | 76.47% | – |
| H-Tyr-Ile-Tyr-NH2 | 46.63% | – |
| Ac-Trp-Val-Tyr-NH2 | 63.18% | – |
| Myristoyl-Tyr-Val-Tyr-NH2 | 12.40% | – |
| H-Tyr-Val-Trp-NH2 | 61.87% | – |
| Myristoyl-Tyr-Val-Phe-NH2 | 37.77% | – |
| H-Tyr-Val-Tyr-Phe-NH2 (H-YVYF-NH2) | 86.68% | – |
| H-Tyr-Val-Tyr-NH2 | 15.65% | % Lipid Accumulation ([1]; 0.1 mg/ml): 32.65%; % Lipid Accumulation ([1]; 0.5 mg/ml): 18.60%; Nocturnin level with respect to basal condition (%) ([2]; 0.1 mg/mL): 76%; Nocturnin level with respect to basal condition (%) ([2]; 0.5 mg/mL): 62%; Nocturnin level with respect to basal condition (%) ([2]; 1 mg/mL): 48%; dose-response of nocturnin reduction (in words) ([2]; 0.1, 0.5 and 1 mg/ml): a dose-response relationship is observed |
| H-Tyr-Val-Tyr-NHC16H33 | 50.12% | – |
| H-Tyr-Met-Tyr-NH2 | 40.24% | – |
| Palmitoyl-Tyr-Leu-Tyr-OH | – | % Lipid Accumulation ([1]; 0.005 mg/ml): 79.98% |
